Test [1] addresses SHP2 (Homo sapiens (Human), UniProt Q06124). In words: Shp2 Biochemical Assay (DiFMUP conversion). The note with it: for IC50: 10 pM SHP2, activating peptide pIRS1, DiFMUP substrate, average where more than one data point. How it is done: SHP2 activity was monitored by measuring the conversion of the surrogate substrate 6,8-difluoromethylumbelliferyl phosphate (DiFMUP) to the fluorescent product, 6,8-difluoromethylumbelliferone (DiFMU).
SHP2 was pre-incubated with test compounds and the activating peptide pIRS1 (H2N-LN(pY)IDLDLV-(PEG)8-LST(pY)ASINFQK-amide) for 30 min, prior to addition of the 6,8-difluoromethylumbelliferyl phosphate (DiFMUP), (Thermo Fisher D6567). Final assay concentrations were 10 pM SHP2, 0.25 μM pIRS1 peptide, 50 μM DiFMUP, 25 mM Bis-Tris propane, pH 7.0, 150 mM NaCl, 0.05% (v/v) Tween-20, 0.5 mM TCEP and 5% (v/v) DMSO. Rates of reaction were then measured over 30 min by monitoring fluorescence on a BMG Pherastar reader at excitation 360 nm/emission 450 nm. IC50 values were calculated from the normalized dose-response plots using four parameter logistic curve fit.

Test [2] relates to pERK. In words: Cellular pERK Inhibition Assay (phospho-p44/42 MAPK sandwich ELISA). The class given is cell-based. The note with it: Homo sapiens; HCC827 cells, 0.5 hours compound treatment; average where more than one data point. On the procedure: Cellular pERK Inhibition Assay
HCC827 cells (ATCC, Manassas, USA) were seeded into 96-well plates at a density of 1×10^5 cells/well in RPMI medium supplemented with 10% FBS and incubated 24 h. Compounds were diluted first in DMSO and then into serum-free medium, before being added to cells in triplicate to give a final concentration of 0.1% DMSO. Plates were incubated at 37° C. for 0.5 hours in a humidified atmosphere of 5% CO2 in air.
Following compound treatment, medium was removed and cells were lysed by adding 50 μL of lysis buffer (Cell Signalling Technology, Beverly, USA) to each well. Plates were then incubated at room temperature for 25 minutes with shaking. pERK levels were measured in lysates using the PathScan® phospho-p44/42 MAPK (Thr202/Tyr204) sandwich ELISA (Cell Signalling Technology, Beverly, USA) as per kit instructions. Briefly, 50 μL of cell lysate was added to 50 μL of ELISA sample diluent in a 96-well ELISA plate and incubated overnight at 4° C. Following washing, 100 μL of detection antibody was added per well and the plates incubated for 1 hour at 37° C. Plates were washed again and incubated at 37° C. for 30 minutes with 100 μl of HRP-linked secondary antibody per well. After final washing, 100 μL per well of TMB substrate was added and plates incubated at 37° C. to develop colour. Colour development was stopped by the addition of 100 μL per well of stop solution. Plates were read at 450 nm on a SpectraMax Gemini reader (Molecular Devices, Uckfield, UK).
The average signal from blank wells (no cells added) was subtracted from the signals from each sample well. Levels of pERK were then expressed as “percent of control”, using DMSO treated samples as control. Dose response curves were generated using GraphPad Prism Version 6 (GraphPad Software, La Jolla, USA) and fitted using the four parameter logistic curve fit.

The text below walks through data of patent US12458640B2, “Pyrazolo[3,4-b]pyrazine SHP2 phosphatase inhibitors” (OTSUKA PHARMACEUTICAL CO., LTD., priority 2019, dated 2025).

Counter-ions that a name gives are not always drawn.

A word on the IC50: it is the concentration that gives 50% inhibition. Higher therefore signals lower potency.

Sequence of SHP2 (Q06124 whole entry): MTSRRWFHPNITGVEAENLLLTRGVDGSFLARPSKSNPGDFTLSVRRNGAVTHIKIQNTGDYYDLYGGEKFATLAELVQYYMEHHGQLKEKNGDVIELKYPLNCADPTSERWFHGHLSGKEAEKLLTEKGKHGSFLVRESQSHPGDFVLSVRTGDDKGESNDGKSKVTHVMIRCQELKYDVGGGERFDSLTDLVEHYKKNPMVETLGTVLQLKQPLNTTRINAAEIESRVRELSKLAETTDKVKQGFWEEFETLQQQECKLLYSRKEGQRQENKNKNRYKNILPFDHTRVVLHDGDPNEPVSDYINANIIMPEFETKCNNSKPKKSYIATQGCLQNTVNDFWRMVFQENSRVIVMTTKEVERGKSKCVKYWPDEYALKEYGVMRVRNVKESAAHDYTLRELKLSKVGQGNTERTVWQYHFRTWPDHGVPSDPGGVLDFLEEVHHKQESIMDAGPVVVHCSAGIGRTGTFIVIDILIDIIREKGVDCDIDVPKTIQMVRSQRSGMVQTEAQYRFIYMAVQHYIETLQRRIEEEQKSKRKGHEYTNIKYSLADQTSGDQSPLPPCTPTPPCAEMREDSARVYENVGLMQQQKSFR

On to `COc1cnc2ccc(-c3n[nH]c4nc(N5CCC6(CC5)CO[C@@H](C)[C@H]6N)c(CO)nc34)c(Cl)c2n1` [Example 22, {6-[(3S,4S)-4-amino-3-methyl-2-oxa-8-azaspiro[4.5]decan-8-yl]-3-(5-chloro-3-methoxyquinoxalin-6-yl)-1H-pyrazolo[3,4-b]pyrazin-5-yl}methanol], for which the values for the IC50 in test [1] and in test [2] were 11 nM and 8.4 nM, respectively.

On to `C[C@@H]1OCC2(CCN(c3nc4[nH]nc(-c5ccc6ncc(N(C)C)nc6c5Cl)c4nc3CO)CC2)[C@@H]1N` [Example 17, {6-[(3S,4S)-4-amino-3-methyl-2-oxa-8-azaspiro[4.5]decan-8-yl]-3-[5-chloro-3-(dimethylamino)quinoxalin-6-yl]-1H-pyrazolo[3,4-b]pyrazin-5-yl}methanol], for which the IC50 in test [1] was found to be 14 nM; in test [2] it was 5.3 nM.

`Cc1nc2c(-c3ccc4ncc(N(C)C)nc4c3Cl)n[nH]c2nc1N1CCC2(CC1)COC[C@H]2N` [Example 11, (4S)-8-{3-[5-chloro-3-(dimethylamino)quinoxalin-6-yl]-5-methyl-1H-pyrazolo[3,4-b]pyrazin-6-yl}-2-oxa-8-azaspiro[4.5]decan-4-amine]: the inhibition at 0.03 µM in test [1] (at 0.030 μM, read-out: SHP2 % inhibition at given concentration) came out at 66%. This molecule gave an IC50 in test [2] of 32 nM.

For `Cc1nc2c(-c3ccc4nn(C)cc4c3Cl)n[nH]c2nc1N1CCC2(CC1)C[C@@H](C(F)(F)F)C[C@H]2N` [Example 1, (1R,3R)-8-[3-(4-chloro-2-methyl-2H-indazol-5-yl)-5-methyl-1H-pyrazolo[3,4-b]pyrazin-6-yl]-3-(trifluoromethyl)-8-azaspiro[4.5]decan-1-amine hydrochloride], the half-inhibitory concentration (IC50) turned out to be 20 nM in test [1] and 74 nM in test [2].

For the molecule `C[C@@H]1OCC2(CCN(c3nc4[nH]nc(-c5ccccc5Cl)c4nc3CO)CC2)[C@@H]1N` [Example 24, {6-[(3S,4S)-4-amino-3-methyl-2-oxa-8-azaspiro[4.5]decan-8-yl]-3-(2-chlorophenyl)-1H-pyrazolo[3,4-b]pyrazin-5-yl}methanol], the half-maximal inhibitory concentration (IC50) in test [1] was 11 nM; in test [2], 6.4 nM.

On to `C[C@@H]1OCC2(CCN(c3nc4[nH]nc(-c5ccc6nn(C)c(Cl)c6c5Cl)c4nc3CO)CC2)[C@@H]1N` [Example 8, {6-[(3S,4S)-4-amino-3-methyl-2-oxa-8-azaspiro[4.5]decan-8-yl]-3-(3,4-dichloro-2-methyl-2H-indazol-5-yl)-1H-pyrazolo[3,4-b]pyrazin-5-yl}methanol], for which the IC50 in test [1] came to 7.1 nM; in test [2], 3.6 nM.

Take `Cc1c2c(Cl)c(-c3n[nH]c4nc(N5CCC6(CC5)CO[C@@H](C)[C@H]6N)c(CO)nc34)ccc2nn1C` [Example 21, {6-[(3S,4S)-4-amino-3-methyl-2-oxa-8-azaspiro[4.5]decan-8-yl]-3-(4-chloro-2,3-dimethyl-2H-indazol-5-yl)-1H-pyrazolo[3,4-b]pyrazin-5-yl}methanol]: the IC50 in test [1] was determined as 15 nM; in test [2] it was 5.7 nM.

For `Cc1nc2c(-c3ccc4ncc(N5CCC5)nc4c3Cl)n[nH]c2nc1N1CCC2(CC1)CO[C@@H](C)[C@H]2N` [Example 25, (3S,4S)-8-{3-[3-(azetidin-1-yl)-5-chloroquinoxalin-6-yl]-5-methyl-1H-pyrazolo[3,4-b]pyrazin-6-yl}-3-methyl-2-oxa-8-azaspiro[4.5]decan-4-amine], the IC50 in test [1] is 24 nM; in test [2] it was 28 nM.

As to `C[C@@H]1OCC2(CCN(c3nc4[nH]nc(-c5cccc(Cl)c5F)c4nc3CO)CC2)[C@@H]1N` [Example 23, {6-[(3S,4S)-4-amino-3-methyl-2-oxa-8-azaspiro[4.5]decan-8-yl]-3-(3-chloro-2-fluorophenyl)-1H-pyrazolo[3,4-b]pyrazin-5-yl}methanol], the IC50 in test [1] came out at 5.4 nM; in test [2], 5.8 nM.

`Cc1nc2c(-c3ccc4nn(C)c(Cl)c4c3Cl)n[nH]c2nc1N1CCC2(CC1)COC[C@H]2N` [Example 4, (4S)-8-[3-(3,4-dichloro-2-methyl-2H-indazol-5-yl)-5-methyl-1H-pyrazolo[3,4-b]pyrazin-6-yl]-2-oxa-8-azaspiro[4.5]decan-4-amine] showed a 50% inhibitory concentration (IC50) in test [1] of 5.3 nM. This counts as single-digit nanomolar.
